Reference: patent publication US8409649B2, “Off-note blocking sensory organic compounds” (Givaudan S.A., priority 2007, dated 2013)
pIC50: −log10 of the molar value. Like-named read-outs stand apart in the source and are kept apart here.

Legend:
[1] = target: T1, human TAS2R44 bitter taste receptor (Homo sapiens, UniProt P59538, L162M); test: TAS2R44 bitter taste receptor assay for IC50 determination (Fluo-4 calcium assay); type: cell-based; settings: for pIC50: agonist not stated, read-out: IC50 when tested with the TAS2R44 bitter taste receptor
T1 construct: The TAS2R44 construct contains RSS tag, TAS2R44, and the HSV tag which are fused in frame; expressed in transfected cells; host or cells: HEK293T/Galpha16-gustducin44 cells, stably transfected with pcDNA3.1Zeo-TAS2R44
T1 sequence (P59538 with tags, fused parts or gaps L162M): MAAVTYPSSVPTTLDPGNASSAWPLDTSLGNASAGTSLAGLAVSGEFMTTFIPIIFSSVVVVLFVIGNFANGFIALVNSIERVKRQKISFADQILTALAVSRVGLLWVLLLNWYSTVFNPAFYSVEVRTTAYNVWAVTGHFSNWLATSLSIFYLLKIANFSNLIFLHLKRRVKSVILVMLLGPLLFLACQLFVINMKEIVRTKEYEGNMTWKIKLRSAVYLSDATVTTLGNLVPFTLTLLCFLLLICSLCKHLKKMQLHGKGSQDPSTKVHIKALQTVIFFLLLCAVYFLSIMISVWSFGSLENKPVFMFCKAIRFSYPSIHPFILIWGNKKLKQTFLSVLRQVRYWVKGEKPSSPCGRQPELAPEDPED
Experimental: A receptor screen with concentration-response analysis was performed and from results inhibitory concentration (IC) IC50 values can be calculated by nonlinear regression using the function f(x)=(a−d)/(1+(x/C)^nh)+d; with a=minimum signal, d=maximum signal, nh=hill coefficient, C=IC50. and x=concentration of antagonist.
IC50 is the molar concentration of an antagonist which produces 50% of the maximum possible inhibitory response for that antagonist.
The full length gene of human TAS2R44 was amplified by polymerase chain reaction (PCR) using gene-specific primers that span the entire coding region as described in WO 2004/029087.
The TAS2R44 cDNA was subcloned into an expression cassette based on either of the following plasmids/expression vectors: pcDNA3.1Zeo (Invitrogen). These vectors contain within their multiple cloning sites the nucleotide sequence coding for the first 45 amino acids of the rat somatostatin receptor subtype 3 (RSS tag) to facilitate cell surface targeting of the transgene (SEQ ID #4) and the nucleotide sequence coding for the herpes simplex virus (HSV) glycoprotein D epitope (HSV epitope in aminoterminal to carboxyterminal direction, HSV tag). (SEQ ID #3) for facilitating immunocytochemical detection.
The TAS2R44 construct contains RSS tag, TAS2R44, and the HSV tag which are fused in frame to allow translation into the receptor protein and the resulting receptor cDNA. This transfected expression vector is called pcDNA3.1Zeo-TAS2R44 (SEQ ID #1) and allows for expression of the TAS2R44 protein (SEQ ID #2).
A cell line that stably expresses the human bitter taste receptor (TAS2R44) was generated by transfecting pcDNA3.1Zeo-TAS2R44 into HEK293T/Gα16-gustducin 44 cells (both formed as described in under 1) above. The host cell line HEK-293T is commercially available from the American […] (catalog #CRL-1573).
Fluo-4 AM (Invitrogen) is a fluorescent indicator of intracellular calcium dynamics (change in concentration) and allows monitoring changes in the calcium concentration, particularly an increase in response to receptor activation occurring after agonist exposure.
At day 0, the HEK293T cell line stably expressing Gα16-gustducin44 and TAS2R44 formed as described under 2) was seeded in antibiotic-free growth medium (standard DMEM with 10% (v/v) heat-inactivated fetal bovine serum, 2 mM L-glutamine […]) into black wall/clear bottom 96-well plates, coated with poly(ethylenimine) (0.005% v/v) at a concentration of 15,000 cells per well and incubated for 48 hours in humidified atmosphere (37° C., 5% CO2).
At the time of the assay, the growth medium was discarded and the cells were further incubated in a humidified atmosphere (37° C., 5% CO2) for 1 hour with 50 μl of loading buffer consisting of 1.5 μM Fluo-4 AM and 2.5 μM probenicid (Sigma-Aldrich) in DMEM.
Afterwards, the 96-well plate was washed 5 times with 200 μl of assay buffer (130 mM NaCl, 5 mM KCl, 10 mM HEPES, 2 mM CaCl2, and 5 mM dextrose, pH 7.4) per well, using an automated plate washer (BioTek). The plate was further incubated for 30 minutes at room temperature in the dark to allow for complete de-esterification of the Fluo-4. Afterwards the plate was washed 5 times with 200 μl of assay buffer per well, and reconstituted with 180 μl of assay buffer per well.
For assay reading, the plate was placed in a Fluorometric Imaging Plate Reader (FLIPR) (FLIPR-TETRA™, Molecular Devices), and receptor activation was initiated by addition of 20 μl of a tenfold concentrated agonist stock solution (to give the desired agonist end concentration when added to the 180 microliter assay buffer volume), which was prepared in assay buffer.
Fluorescence was continuously monitored for 20 seconds to give a signal baseline (averaged to give F0) prior to agonist addition and for 120 seconds after agonist addition. […]

[2] = test system: panel of bitter sensitive individuals; test: Sensory evaluation, forced choice test in water with sucralose; type: in vivo; settings: 13 ppm in water with sucralose 1 mM, 3 mM, 7 mM
Experimental: The bitter blocker (13 ppm) was tested in water with sucralose in concentrations of 1 mM, 3 mM, and 7 mM by a panel of bitter sensitive individuals (15) in two replications per each concentration. The samples were compared to negative controls without bitter blocker and panelists were instructed to choose the less bitter sample in a forced choice test.

| Compound | pIC50 [1] | IC50 ([1]; sucralose (50 mM) as agonist, same range as example 4) | effect on bitterness vs negative control without bitter blocker [2] | panelists that chose the sample with bitter blocker as less bitter ([2]; forced choice, 15 individuals, two replications) |
| --- | --- | --- | --- | --- |
| CC1CCCC(C)(C)C1CCC(=O)O (stereo not shown) [3-(2,2,6-trimethylcyclohexyl)propanoic acid] | 4.70 to 7.00 |  |  |  |
| CC1CCC(CC(=O)O)CC1C (stereo not shown) [2-(3,4-dimethylcyclohexyl)acetic acid] | 4.70 to 7.00 |  |  |  |
| CC1CCC(CCCC(=O)O)C1(C)C (stereo not shown) [4-(2,2,3-trimethylcyclopentyl)butanoic acid] | 4.70 to 7.00 |  |  |  |
| CC1=CCC(C/C=C/C(=O)O)C1(C)C (stereo not shown) [4-(2,2,3-trimethylcyclopent-3-enyl)but-2-enoic acid] | 4.70 to 7.00 | within the same range | significantly reduce bitterness | 22/30 |
| CC1(C(=O)O)CC1CC1CC2CC2(C)C1(C)C (stereo not shown) [1-methyl-2-((1,2,2-trimethylbicyclo[3.1.0]hexan-3-yl)methyl)cyclopropanecarboxylic acid] | 4.70 to 7.00 |  |  |  |

Continued, in another order:

| pIC50 [1] | IC50 ([1]; sucralose (50 mM) as agonist, same range as example 4) | Compound | effect on bitterness vs negative control without bitter blocker [2] | panelists that chose the sample with bitter blocker as less bitter ([2]; forced choice, 15 individuals, two replications) |
| --- | --- | --- | --- | --- |
| 4.70 to 7.00 |  | CC1CCCC(C)(C)C1CCCC(=O)O (stereo not shown) [4-(2,2,6-trimethylcyclohexyl)butanoic acid] |  |  |
| 4.70 to 7.00 |  | CC1=CCCC(C)(C)C1CCC(C)C(=O)O (stereo not shown) [2-methyl-4-(2,6,6-trimethylcyclohex-2-enyl)butanoic acid] |  |  |
